Laboratory results from patent US20110027771A1, “METHODS AND COMPOSITIONS FOR CELL STABILIZATION” (Artemis Health, Inc., priority 2009, published 2011).

Test system: fetal cells
Experiment: Fetal cell number in blood drawn into sodium heparin or EDTA tubes, digital PCR
Assay type: cell-based
Settings: composition containing heparin compared to composition containing EDTA; processed within 2 hrs after blood draw; FIG. 1
Protocol: The number of fetal cells in solutions containing EDTA or heparin were compared (FIG. 1). Pre-procedural blood samples (10 ml per condition) were drawn into either sodium heparin tubes or EDTA tubes. Samples were processed within 2 hrs after blood draw. Briefly, whole blood samples were centrifuged to separate blood cells and plasma. Fetal gender was determined by digital PCR using plasma. Blood cell pellets were washed 5 times in PBS to remove cell-free DNA. DNA was then extracted from washed blood cells with a Qiagen column. The fetal cell number in samples with a male fetus was enumerated by digital PCR.

heparin
fetal cell stability: higher stability
